Reference: patent US20230109839A1, “THERAPEUTIC AGENT FOR TAUOPATHIES” (SUMITOMO PHARMA CO., LTD., priority 2020, published 2023)

The compounds below were run against T1, human Nav1.1 (Homo sapiens, UniProt P35498) (assay: Amplification of Nav1.1-derived voltage-gated sodium current (Nav1.1 current), automated patch clamp (Test 1)). Conditions: Concentration for evaluation 1 μM; HEK293 cell line stably expressing human Nav1.1.
T1 construct: host or cells: HEK293
Type: cell-based
Summary of the method: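 Compound-induced change in ramp-evoked sodium current peak and AUC was expressed as 100×post/pre ratio minus 100. Recordings used automated patch clamp in voltage-clamp mode on a stable human Nav1.1 HEK293 line, including only cells above 500 pA. Compounds were delivered in extracellular fluid containing 1% DMSO.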

First: CC(C)CCOc1ncc2cnn(CC(=O)Nc3ccn4ncnc4c3)c2n1 [Example 780]
Second: CN(CCC1CC1)c1ncc2cnn(CC(=O)Nc3ccn4ncnc4c3)c2n1 [Example 790]
The “Nav1.1 current amplification rate (%)” value of the first is lower: 10% for the first, 31% for the second.

Going from CN(c1cnc2cnn(CC(=O)Nc3ccn4ccnc4c3)c2n1)C1CCC1 [Example 685] to CN(CCC1CC1)c1cnc2cnn(CC(=O)Nc3ccc4cncnc4c3)c2n1 [Example 647], the “Nav1.1 current amplification rate (%)” value rises from 41% to 165%.

Compared with CN(c1cnc2cnn(CC(=O)N3CCc4c(C5=CCOCC5)cccc43)c2n1)C1CCC1 [Example 688], COC1CN(Cc2cccc3c2CCN3C(=O)Cn2nc(C3=CCC(C)CC3)ccc2=O)C1 (stereo not drawn) [Example 274] is lower in “Nav1.1 current amplification rate (%)” value: 201% for the first, 60% for the second.

Compared with CC1CC=C(c2cnc3cnn(CC(=O)Nc4ccc5cncnc5c4)c3n2)CC1 (stereo not drawn) [Example 641], CC1CC=C(c2ccc(=O)n(CC(=O)Nc3ccc4ncnn4c3)n2)CC1 (stereo not drawn) [Example 339] is lower in “Nav1.1 current amplification rate (%)” value: 361% for the first, 127% for the second.

Same assay, conditions: Concentration for evaluation 3 μM; HEK293 cell line stably expressing human Nav1.1

First: CC1CC=C(c2ccc(=O)n(CC(=O)Nc3ccn4cc(C5CC5)nc4c3)n2)CC1 (stereo not drawn) [Example 334]
Second: CC1CC=C(c2ccc(=O)n(CC(=O)N3CCN(c4cncc(OC(F)F)c4)CC3)n2)CC1 (stereo not drawn) [Example 405]
The “Nav1.1 current amplification rate (%)” value of the first is lower: 255% for the first, 268% for the second.

Same assay, conditions: Concentration for evaluation 10 μM; HEK293 cell line stably expressing human Nav1.1

Compared with CC1CCN(c2ccc(=O)n(CC(=O)Nc3ccc4nccn4c3)n2)CC1 [Example 90], Cc1nc2ccc(NC(=O)Cn3nc(N4CCC(C)CC4)ccc3=O)cc2o1 [Example 68] is higher in “Nav1.1 current amplification rate (%)” value: 31% for the first, 42% for the second.

Compared with CC1CCN(c2ccc(=O)n(CC(=O)Nc3ccnc(N4CCOCC4)c3)n2)CC1 [Example 66], CC1CC=C(c2ccc(=O)n(CC(=O)N3CCN(c4nccs4)CC3)n2)CC1 (stereo not drawn) [Example 414] is lower in “Nav1.1 current amplification rate (%)” value: 49% for the first, 40% for the second.

First: CC1(C)CCCC(c2ccc(=O)n(CC(=O)Nc3ccc(C#N)cc3)n2)C1 (stereo not drawn) [Example 46]
Second: CC1C=C(c2ccc(=O)n(CC(=O)Nc3ccc(C#N)cc3)n2)CC(C)O1 (stereo not drawn) [Example 49]
The “Nav1.1 current amplification rate (%)” value of the first is higher: 85% for the first, 2% for the second.

First: Cc1cc(C2=CCC(C)(C)CC2)nn(CC(=O)Nc2ccn3ccnc3c2)c1=O [Example 460]
Second: CC1(C)CC=C(c2ccc(=O)n(CC(=O)Nc3ccn4nccc4c3)n2)CC1 [Example 427]
The “Nav1.1 current amplification rate (%)” value of the first is higher: 221% for the first, 172% for the second.

First: Cc1nc2cc(NC(=O)Cn3nc(C4=CCC(C)CC4)ccc3=O)ccc2o1 (racemic) [Example 422]
Second: COc1cc(=O)n(CC(=O)Nc2ccc3ocnc3c2)nc1C1=CCC(C(F)(F)F)CC1 (racemic) [Example 450]
The “Nav1.1 current amplification rate (%)” value of the first is higher: 287% for the first, 187% for the second.

Compared with CC1CC=C(c2ccc(=O)n(CC(=O)N3C[C@@H](C)N(c4cccnc4)[C@@H](C)C3)n2)CC1 (stereo partly drawn) [Example 416], CC1(C)CC=C(c2ccc(=O)n(CC(=O)N3CCN(c4cccnc4)CC3)n2)CC1 [Example 440] is lower in “Nav1.1 current amplification rate (%)” value: 383% for the first, 196% for the second.

Same assay, conditions: Concentration for evaluation 50 μM; HEK293 cell line stably expressing human Nav1.1

For CC1CC=C(c2ccc(=O)n(CC(=O)N3CC=C(c4ccccn4)C3)n2)CC1 (stereo not drawn) [Example 385], the “Nav1.1 current amplification rate (%)” value was 42%.

Same assay, conditions: HEK293, Concentration for evaluation 10 μM; HEK293 cell line stably expressing human Nav1.1; read-out: Nav1.1 current amplification rate (%)

Going from N#Cc1cncc(NC(=O)Cn2nc(N3CCCCC3)ccc2=O)c1 [Example 108] to O=C(Cn1nc(N2CCCCC2)ccc1=O)Nc1ccc(C(F)(F)F)nc1 [Example 104], the activation at 10 µM rises from 5% to 11%.

Same assay, conditions: HEK293, concentration for evaluation 1 μM; HEK293 stably expressing human Nav1.1; read-out: Nav1.1 current amplification rate (%)

Going from O=C(Cn1ncc2cnc(N3CCC4(CCC4)C3)nc21)Nc1ccn2ccnc2c1 [Example 834] to CC1CC=C(c2ncc3cnn(CC(=O)NC4=CC5N=COC5C=C4)c3n2)CC1 (stereo not drawn) [Example 833], the activation at 1 µM rises from 26% to 283%.

Same assay, conditions: concentration for evaluation 1 μM; HEK293 stably expressing human Nav1.1

Compared with CC1CCN(c2ccc3cnn(CC(=O)Nc4ccc5cnnn5c4)c3n2)CC1 [Example 878], CC1CCN(c2ccc3cnn(CC(=O)Nc4ccn5ccnc5c4)c3n2)CC1 [Example 870] is higher in “Nav1.1 current amplification rate (%)” value: 42% for the first, 120% for the second.

With CC1CC=C(c2ccc3cnn(CC(=O)Nc4ccn5ccnc5c4)c3n2)CC1 (stereo not drawn) [Example 864] the “Nav1.1 current amplification rate (%)” value was 160%.
